Results: patent US20060008849A1, “Methods for measuring chloride channel conductivity” (priority 2004, published 2006)

Columns and labels:
human GABAA channel = molecular target: T1, human GABAA channel (UniProt P18508+P28472+P62813); experiment: Sandell-Kolthoff (SK) assay on the outwardly rectifying GABAA receptor (iodide efflux); format: cell-based; conditions: IC50, decrease of GABAA channel conductivity
T1 construct: host or cells: ATCC CRL-2029 (WSS-1, HEK293-derived, by own knowledge)
Protocol: In addition, the iodine loading buffer consisting of 150 mM NaI, 2 mM CaCl2, 0.8 mM NaH2PO4, 1 mM of MgCl2, and 5 mM of IK, 2% FBS (# 35-010-AV, CELLGRO, VA) pH7.4, was prepared by mixing and dissolving each described component into purified water, and adjusting the pH accordingly.
Cell line expressing human GABAA (Adenovirus type) was obtained from the American Type Culture Collection (ATCC, Cat No. CRL-2029). Cells were grown in supplemented DMEM medium consisting of DMEM medium (#10-017-CV, CELLGRO, VA), 4 mM L-glutamine, 1.5 g/L sodium bicarbonate, 4.5 g/L glucose, 1.0 mM sodium pyruvate, and 10% fetal bovine serum (# 35-010-AV, CELLGRO, VA)
Cells in supplemented DMEM medium (200 μl, approx. 250,000 cells/ml) were added to each well of a D-lysine coated 96-well plate (Corning, Cat No. 3667), and were incubated overnight in a tissue culture incubator at 37° C. under 90% air/10% CO2. Then, the supplemented DMEM medium was removed with a multichannel pipettor, and 200 μl iodine-loading buffer was added to each well with Rapid Plate™ (Zymark, MA). Cells were incubated for 2-4 hours at 37° C. under 90% air/10% CO2, and were subsequently washed with phosphate buffer saline (DPBS, Invitrogen, CA), or culture medium. […] The amount of I^− in the lysed cells was measured by the SK assay procedure described in Example 1.
IC50s were calculated with IDBS XL-fit model 205 (IDBS, UK).

human CFTR channel = experiment: Sandell-Kolthoff (SK) assay on the outwardly rectifying CFTR channel, HTB-79 cells; format: cell-based
Protocol: HTB-79 cell line intrinsically expressing the human CFTR channel was obtained from ATCC. The CRL-1918 cell line, having a defective CFTR channel, was also obtained from ATCC. Cells were grown in Iscove's modified Dulbecco's medium consisting of Iscove's modified medium (CELLGRO, VA) and 4 mM L-glutamine, 1.5 g/L sodium bicarbonate, and 20% FBS (CELLGRO, VA). HTB-79 cells in Iscove's modified Dulbecco's medium (200 μl, approx. 500,000 cells/ml) were added to each well of a costar 96-well plate (Corning Costar, NY), and were incubated overnight in a tissue culture incubator at 37° C. under 90% air/5% CO2. Then, the Iscove's modified Dulbecco's medium was removed and 200 μl of iodine-loading buffer was added to each well of the plate. Cells were incubated for 2-4 hours at 37° C. under 90% air/5% CO2 and washed with DPBS (Invitrogen, CA) or culture medium. DPBS (100-200 μl) was added to each well. […] After the cells were incubated at room temperature for an additional 5 minutes, they were separated from the suspending buffer, and were lysed with 100 μl of cell lysis buffer (1% Triton X-100). The amount of I^− in the lysed cells was measured by the SK assay procedure described in Example 1. […] Forskolin stimulated adenylate cyclase activity resulting in increased level of cAMP, which in turn activated CFTR channel.

T1 sequence (P62813 28-455): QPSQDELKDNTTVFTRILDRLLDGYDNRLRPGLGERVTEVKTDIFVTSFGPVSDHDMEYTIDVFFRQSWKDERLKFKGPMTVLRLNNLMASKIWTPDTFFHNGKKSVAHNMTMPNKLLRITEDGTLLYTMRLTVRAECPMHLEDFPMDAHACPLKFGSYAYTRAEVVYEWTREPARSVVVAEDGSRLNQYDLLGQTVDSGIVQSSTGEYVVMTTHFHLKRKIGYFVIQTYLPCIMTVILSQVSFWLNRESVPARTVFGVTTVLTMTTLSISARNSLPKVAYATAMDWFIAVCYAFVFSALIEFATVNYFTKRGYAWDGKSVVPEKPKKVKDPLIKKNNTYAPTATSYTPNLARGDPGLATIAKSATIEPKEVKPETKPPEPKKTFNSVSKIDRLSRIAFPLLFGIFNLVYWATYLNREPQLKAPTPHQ
T1 sequence (P28472 26-473): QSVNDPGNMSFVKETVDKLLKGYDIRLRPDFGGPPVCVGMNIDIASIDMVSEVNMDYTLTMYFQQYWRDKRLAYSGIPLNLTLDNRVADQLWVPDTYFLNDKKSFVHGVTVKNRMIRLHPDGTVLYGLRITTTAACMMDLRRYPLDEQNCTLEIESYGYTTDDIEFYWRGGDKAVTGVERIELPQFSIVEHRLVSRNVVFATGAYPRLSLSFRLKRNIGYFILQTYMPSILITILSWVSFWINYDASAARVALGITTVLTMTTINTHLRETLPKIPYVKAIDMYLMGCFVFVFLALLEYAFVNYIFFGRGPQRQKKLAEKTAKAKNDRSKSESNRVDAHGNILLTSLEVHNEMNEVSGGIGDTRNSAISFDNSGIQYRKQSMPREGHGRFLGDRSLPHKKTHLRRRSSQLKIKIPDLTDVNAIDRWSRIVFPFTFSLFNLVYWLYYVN
T1 sequence (P18508 39-466): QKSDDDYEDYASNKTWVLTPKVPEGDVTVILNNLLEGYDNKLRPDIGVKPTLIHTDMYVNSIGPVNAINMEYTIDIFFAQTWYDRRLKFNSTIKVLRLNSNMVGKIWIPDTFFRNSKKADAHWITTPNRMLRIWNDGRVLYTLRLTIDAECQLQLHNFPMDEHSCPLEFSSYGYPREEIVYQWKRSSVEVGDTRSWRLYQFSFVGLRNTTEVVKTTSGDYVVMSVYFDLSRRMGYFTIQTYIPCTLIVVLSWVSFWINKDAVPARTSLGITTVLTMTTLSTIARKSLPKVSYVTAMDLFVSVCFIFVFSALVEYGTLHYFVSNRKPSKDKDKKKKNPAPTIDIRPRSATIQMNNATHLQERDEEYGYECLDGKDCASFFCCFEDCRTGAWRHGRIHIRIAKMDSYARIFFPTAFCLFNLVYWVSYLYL

Compound | IC50 (human GABAA channel; in the presence of 30 μM GABA) [nM] | IC50 (human GABAA channel; in the presence of 300 μM GABA) [nM] | lowest concentration at which activation of CFTR was detected (human CFTR channel) [nM] | EC50 (human CFTR channel; one-half of activity with 100 μM Forskolin, read-out: EC50 for Forskolin, activation of CFTR channel) [nM]
CN1CCc2cc3c(cc2[C@H]1[C@@H]1OC(=O)c2c1ccc1c2OCO1)OCO3 [Bicuculline] | ~1000 | ~50000 | – | –
C=C[C@@]1(C)CC(=O)[C@]2(O)[C@@]3(C)[C@@H](O)CCC(C)(C)[C@@H]3[C@H](O)[C@H](OC(C)=O)[C@@]2(C)O1 [Forskolin] | – | – | 300 | 1000
